# Measured values published in PMC6691761, “Potential multifunctional agents with anti-hepatoma and anti-inflammation properties by inhibiting NF-кB activation” (Journal of Enzyme Inhibition and Medicinal Chemistry, 2019).
# Legend:
# [1] = test system: human breast cancer cells (MCF-7); test: Cytotoxicity, MTT assay, MCF-7; type: cell-based
# From the text: (§1) Compounds 83–102 were screened against human neoplastic cell lines, such as human breast cancer cells (MCF-7), human colon cancer cells (HCT116), human lung carcinoma cells (A549), human gastric adenocarcinoma cells (SGC7901), human liver hepatocellular carcinoma cell line (HepG2), human cervical carcinoma cells (HeLa), human acute mononuclear granulocyte leukaemia (THP-1), and human normal hepatic cell line (LO2) using modified MTT assay. All the cells were obtained from the American Type Culture Collection (ATCC, Manassas, VA). The cells were cultured in DMEM or 1640. Positive controls (Doxorubicin (DOX) and Curcumin) and BAPs were initially dissolved in dimethyl sulphoxide (DMSO). Experimental concentration of DMSO was always 0.1% (v/v). The concentrations of BAPs and positive controls were 50, 20, 10, 5, 2.5, 1, 0.5, 0.1, 0.05, and 0.01 μg/mL.
# (§2) The cells (1 × 10^4 cells/well) were seeded in a 96-well plate and incubated for 24 h. Cells treated with serial concentrations of drugs were incubated for another 24 h. After the media removed, 20 μL of MTT (5 mg/mL) solution was added and incubated for 4 h at 37 °C. The MTT solution was removed and then 150 μL of DMSO was added. The optical density was measured with a multi-well plate reader (TECAN, Mӓnnedorf, Switzerland) at 570 nm. The results are expressed as a decrease in the cell viability (%) in comparison to untreated controls. The concentration of each compound was examined in triplicate, and the IC50 values are expressed in Table 1.
# [2] = test system: NF-κB p65 nuclear translocation in LPS-stimulated RAW264.7 cells; test: NF-κB p65 nuclear translocation, immunofluorescence, RAW264.7; type: cell-based; conditions: RAW264.7, LPS 1.0 μg/mL, 4.0 μM
# Experimental: RAW264.7 cells were pretreated in 96-well plates with LPS (1 μg/mL) for 15 min and then treated with 96 for 2 h. Similarly, HepG2 cells were pretreated with TNF-α (10 ng/mL) for 15 min and then treated with 96 for 4 h. The cells were fixed with 2% paraformaldehyde for 15 min at 37 °C and permeabilized using 0.1% Triton X-100 for 10 min at RT. After blockage with 3% BSA for 30 min, the cells were incubated with anti-NF-κB p65 antibody (NOVUS BIOLOGICALS, Colorado, USA) at 4 °C overnight. After washing, the anti-mouse Alexa488-conjugated secondary antibody (Jackson Immuno Research, West Grove, PA) was incubated for 30 min at RT. After washed with PBS, the cells were incubated in 4-6-diamidino-2-phenyindole (DAPI; Sigma, St. Louis, MO) for 15 min in the dark at RT. The cell images were simultaneously viewed using a microscopy system in High Throughput Screen (Operetta, PerkinElmer, Waltham, MA).
# [3] = test system: HepG2 xenografts; test: HE staining of HepG2 xenografts; type: in vivo, Balb/c nude mice
# Experimental: (§3) The HepG2 cells xenografts were established using the Balb/c nude mice (female, 7-week-old, 17–19 g, n = 30) (Shanghai Laboratory Animal Center, Shanghai Shi, China) were used to investigate the anti-hepatoma effect of 96. Animal experiments were reviewed and approved by the Binzhou Medical University Experimental Animal Committee. Briefly, HepG2 cells (1 × 10^7/0.2 ml PBS/mouse) were inoculated subcutaneously. Three days after the inoculation, the mice were randomly divided into five groups: the saline treated group (Control), 96 (0.2 mg/kg) group, 96 (1.0 mg/kg) treated group, 96 (5.0 mg/kg) treated group, and DOX (1.0 mg/kg) treated group. 96 were dissolved in saline containing 1% of DMSO and administered intraperitoneally every 2 d for 20 days. DOX was also administered intraperitoneally every 2 d for 20 d. The body weight and HepG2 xenografts volumes were recorded from the day of treatment, and xenografts volumes were calculated using the equation: tumour volume = length×(width)[2]×π/6. At the end of the experiment, mice were sacrificed and the xenografts were obtained for western blotting, HE staining and immunohistochemistry staining.
# The HepG2 xenografts tissues were embedded using the paraffin, and sectioned for HE staining and immunohistochemistry staining. HE staining was performed routinely. The immunohistochemistry staining carried out as following. Briefly, the processed sections were incubated with the primary antibodies: Bcl-2 and TNF-α (NOVUS BIOLOGICALS) at 4 °C overnight. After washing, the anti-rabbit peroxidase-conjugated secondary antibody (Sigma-Aldrich, St. Louis, MO) was incubated for 1 h at RT. After washing with PBS, the cells were visualized using the 3,3'-diaminobenzidine (DAB) solution under the light microscope. The cell images were taken using a light microscopy (Olympus, Tokyo, Japan).
# [4] = test system: human acute mononuclear granulocyte leukaemia (THP-1); test: Cytotoxicity, MTT assay, THP-1; type: cell-based; conditions: for IC50: MTT, 24 h
# From the text: as §1, §2
# [5] = test system: human colon cancer cells (HCT116); test: Cytotoxicity, MTT assay, HCT116; type: cell-based
# From the text: as §1, §2
# [6] = test system: C-caspase-3 expression in HepG2 cells; test: Western blot, C-caspase-3 expression in HepG2 cells; type: cell-based, human; conditions: HepG2, 1.0, 2.0, and 4.0 μM
# Experimental: The HepG2 cells were treated with BAP 96 at different concentrations (1.0, 2.0, and 4.0 µM) for 3 h, and washed twice by PBS. The cells were lysed and the extracted proteins of cell lysates were separated by 10% SDS-PAGE gel electrophoresis, then transferred onto polyvinylidene fluorides membranes. The membranes were probed with antibodies and visualized using an enhanced chemiluminescence (ECL) detection kit.
# [7] = Body weight of xenograft mice; type: in vivo; conditions: 0.2, 1.0, 5.0 mg/kg i.p. every 2 d for 20 days
# Experimental: as §3
# [8] = test system: TNF-α expression in HepG2 xenografts; test: Immunohistochemistry staining of TNF-α in HepG2 xenografts; type: in vivo, Balb/c nude mice; conditions: 96 5.0 mg/kg, DOX 1.0 mg/kg, versus model group
# Experimental: as §3
# The HepG2 xenografts tissues were embedded using the paraffin, and sectioned for HE staining and immunohistochemistry staining. HE staining was performed routinely. The immunohistochemistry staining carried out as following. […]
# [9] = test system: HepG2 cells; test: Apoptosis assay, annexin V staining, flow cytometry; type: cell-based, human; conditions: 2.0 μM, 24 h
# Experimental: After treated with BAP 96 (1.0, 2.0, and 4.0 μM) and DMSO for 24 h. HepG2 cells were washed and added with 500 μL of Binding Buffer, 5 μL of Annexin V-EGFP and 5 μL of Propidiumlodide and mix (BD Biosciences, San Jose, CA) according to the manufacturer’s instruction. The mixed solution was gently vortexed and incubated in the dark at RT for 15 min. The results were detected by flow cytometry (BD FACS Calibur, San Jose, CA) within 1 h.
# [10] = test system: human normal hepatic cell line (LO2); test: Toxicity to normal cells, MTT assay, LO2; type: cell-based; conditions: Homo sapiens, 24 h
# From the text: as §1, §2
# [11] = quotient of IC50 towards LO2 cells
structure (smiles),measurement,setting,value
CN1CC(=Cc2cccc(N=Cc3cc(Br)ccc3O)c2)C(=O)C(=Cc2ccccc2F)C1 [Compound 96],IC50,"[1]; Homo sapiens, MCF7, MTT, 24 h",2.5 ± 0.2 µM
same,MCF-7 SI (selectivity index),[1]; [11],8.0
same,p65 nuclear translocation,[2],prevented the p65 nuclear translocation
same,"Fracted cells, HE staining","[3]; 96 5.0 mg/kg, DOX 1.0 mg/kg",a plenty of fracted cells
same,"Histopathological change of cell nucleus, HE staining","[3]; HepG2 xenografts, versus model group",made the HepG2 cell nucleus wrinkled
same,IC50,"[4]; Homo sapiens, THP-1, 24 h",< 2 µM
same,IC50,[4],1.1 ± 0.6 µM
same,THP-1 SI (selectivity index),[4]; [11],18.1
same,IC50,"[5]; Homo sapiens, HCT-116, MTT, 24 h",2.5 ± 0.1 µM
same,HCT116 SI (selectivity index),[5]; [11],8.0
same,Expression of C-caspase-3,[6],dose-dependently increased
same,Toxicity judged by mice body weight,[7],correspondingly nontoxic at the experimental doses
same,"TNF-α expression, immunohistochemistry",[8],significantly reduced
same,Apoptosis rate of HepG2 cells,[9],24.4%
same,IC50,[10],19.9 ± 0.4 µM
